In paper PMC10613967, “The anti-cancer efficacy of a novel phenothiazine derivative is independent of dopamine and serotonin receptor inhibition” (Frontiers in Oncology, 2023):
pIC50: −log10 of the molar value. Where a name gives a salt, the structure may show the parent alone. Read-outs that look alike come from different tables or passages of the source.

Assays:
A375 cells [1] = test: Cell viability assay (Cell-Titer-Blue); format: cell-based, human
Procedure: (§1) Cells were seeded in 96-well plates at a suitable cell density for the growth rates of individual cell lines and the incubation time of the assay. […] Cell viability was determined using Cell-Titer-Blue assay (Promega) according to manufacturer’s instructions. The Synergy HT plate reader (Biotek, Winooski, VT) was used for signal quantification and the fluorescence values were normalized to the vehicle well for each cell line. Absolute IC50 and Growth rate inhibition GR50 ([27]) were calculated with GraphPadPrism software (GraphPad Software, Inc.).

A375 cells [2] = test: Immunofluorescence (α-tubulin, pericentrin, DNA); format: cell-based, human; details: 20µM, 24h
Procedure: At the end of the incubation, cells were fixed in 4% PFA, permeabilized in PBS-0.2% Triton X100, and blocked in PBS-2.5% BSA before antibody incubation. Cells were incubated with anti-Tubulin and anti-Pericentrin antibodies overnight at 4°C, and then with secondary antibodies for 1 h at room temperature ( Table 1 ). All antibodies were diluted in PBS-2.5% BSA. The coverslips were then mounted on cover glass with a DAPI (4’,6-diamidino-2-phenylindole)-containing mounting media (Invitrogen P36962, Waltham, MA), and imaged with a Leica SP8 confocal microscope.

A375 cells [3] = test: Cell cycle analysis (PI staining, flow cytometry); format: cell-based, human; details: 24h
Procedure: (§2) A375 cells were seeded at 250,000 cells/well in 6-well plates and left to attach overnight. […] For cell cycle analysis, cells were detached with trypsin, fixed in ethanol 70%, treated with RNase A, mixed with propidium iodide, and processed with the Becton Dickinson LSR II flow cytometer. Analysis was performed with ModFit LT software. […] Samples were processed with the Becton Dickinson LSR II flow cytometer, and the analysis was performed with FlowJo software. Annexin V positive and PI negative cells were counted as apoptotic cells.

A375 cells [4] = test: Apoptosis assay (Annexin V staining, flow cytometry); format: cell-based, human; details: 24h exposure
Procedure: as §2

[5] = tested on: variety of cancer cell types; details: in vitro; read-out: IC50, cytotoxicity; cited from earlier work
RPMI7951 = test: Cell viability assay (Cell-Titer-Blue); format: cell-based, human; details: 72h; read-out: Calculated IC50
Procedure: as §1

RT4 = test: Cell viability assay (Cell-Titer-Blue); format: cell-based, human; details: 72h; read-out: Calculated IC50
Procedure: (§3) All cell lines were grown at 37°C in a 5% CO2 atmosphere in the ATCC-specified medium containing 10% FBS and 1% NEAA ( Table 1 ).
as §1

A101D = test: Cell viability assay (Cell-Titer-Blue); format: cell-based, human; details: 72h; read-out: Calculated IC50
Procedure: as §3, §1

[6] = tested on: panel of cancer cell lines; test: Cell viability assay across the panel of cell lines; format: cell-based, human; details: 72h of drug exposure; read-out: Absolute IC50, range across the panel
Procedure: as §3, §1

22Rv1 = test: Cell viability assay (Cell-Titer-Blue); format: cell-based, human; details: 72h; read-out: Calculated IC50
Procedure: as §1

HepG2 = test: Cell viability assay (Cell-Titer-Blue); format: cell-based, human; details: 72h; read-out: Calculated IC50
Procedure: as §3, §1

MDA-MB-231 = test: Cell viability assay (Cell-Titer-Blue); format: cell-based, human; details: 72h; read-out: Calculated IC50
Procedure: as §1

HT29 = test: Cell viability assay (Cell-Titer-Blue); format: cell-based, human; details: 72h; read-out: Calculated IC50
Procedure: as §1

A498 = test: Cell viability assay (Cell-Titer-Blue); format: cell-based, human; details: 72h; read-out: Calculated IC50
Procedure: as §3, §1

PC-3 = test: Cell viability assay (Cell-Titer-Blue); format: cell-based, human; details: 72h; read-out: Calculated IC50
Procedure: as §3, §1

A2058 = test: Cell viability assay (Cell-Titer-Blue); format: cell-based, human; details: 72h; read-out: Calculated IC50
Procedure: as §3, §1

PANC1 = test: Cell viability assay (Cell-Titer-Blue); format: cell-based, human; details: 72h; read-out: Calculated IC50
Procedure: as §1

DU145 = test: Cell viability assay (Cell-Titer-Blue); format: cell-based, human; details: 72h; read-out: Calculated IC50
Procedure: as §3, §1

Hs852T = test: Cell viability assay (Cell-Titer-Blue); format: cell-based, human; details: 72h; read-out: Calculated IC50
Procedure: as §3, §1

ZR-75-1 = test: Cell viability assay (Cell-Titer-Blue); format: cell-based, human; details: 72h; read-out: Calculated IC50
Procedure: as §3, §1

HCC1806 = test: Cell viability assay (Cell-Titer-Blue); format: cell-based, human; details: 72h; read-out: Calculated IC50
Procedure: as §3, §1

786-O = test: Cell viability assay (Cell-Titer-Blue); format: cell-based, human; details: 72h; read-out: Calculated IC50
Procedure: as §3, §1

U251 = test: Cell viability assay (Cell-Titer-Blue); format: cell-based, human; details: 72h; read-out: Calculated IC50
Procedure: as §1

WM-266-4 = test: Cell viability assay (Cell-Titer-Blue); format: cell-based, human; details: 72h; read-out: Calculated IC50
Procedure: as §3, §1

U87 = test: Cell viability assay (Cell-Titer-Blue); format: cell-based, human; details: 72h; read-out: Calculated IC50
Procedure: as §1

SKMEL28 = test: Cell viability assay (Cell-Titer-Blue); format: cell-based, human; details: 72h; read-out: Calculated IC50
Procedure: as §1

BxPC3 = test: Cell viability assay (Cell-Titer-Blue); format: cell-based, human; details: 72h; read-out: Calculated IC50
Procedure: as §1

TCCSUP = test: Cell viability assay (Cell-Titer-Blue); format: cell-based, human; details: 72h; read-out: Calculated IC50
Procedure: as §3, §1

HCT116 = test: Cell viability assay (Cell-Titer-Blue); format: cell-based, human; details: 72h; read-out: Calculated IC50
Procedure: as §1

LNCaP = test: Cell viability assay (Cell-Titer-Blue); format: cell-based, human; details: 72h; read-out: Calculated IC50
Procedure: as §3, §1

SMILES: CN(C)CCCN1c2ccccc2Sc2ccc(Cl)cc21 [Chlorpromazine, chlorpromazine hydrochloride]
- pIC50 (A375 cells [1]; Homo sapiens, A-375, 24h treatment, read-out: IC50, cell viability): 4.87
- mitotic phenotype by immunofluorescence (A375 cells [2]): cells often appeared binucleated
- cells in the G2/M phase (A375 cells [3]; 20µM): 69.8%
- cell cycle arrest (in words) (A375 cells [3]): induces a cell cycle arrest in G2/M

SMILES: OCCN1CCN(CCCN2c3ccccc3Sc3ccc(C(F)(F)F)cc32)CC1 [Fluphenazine, fluphenazine hydrochloride]
- concentrations inducing apoptosis (annexin V staining) (A375 cells [4]): ≥ 20 µM
- pIC50 [5]: 4.70 to 5.30
- mitotic phenotype by immunofluorescence (A375 cells [2]): dramatic decrease in the number of cells in mitosis
- concentrations inducing G0/G1 cell cycle arrest (A375 cells [3]): ≥ 10 µM

SMILES: Cl.NCCCCCCNS(=O)(=O)c1cccc2c(Cl)cccc12 [W-7, W-7 hydrochloride]
- pIC50 (RPMI7951): 4.58
- pIC50 (RT4): 4.34
- pIC50 (A101D): 4.57
- pIC50 [6]: 4.25 to 4.66
- pIC50 (22Rv1): 4.41
- pIC50 (HepG2): 4.57
- pIC50 (MDA-MB-231): 4.46
- pIC50 (HT29): 4.58
- pIC50 (A498): 4.55
- pIC50 (PC-3): 4.39
- pIC50 (A2058): 4.61
- pIC50 (PANC1): 4.49
- pIC50 (DU145): 4.43
- pIC50 (Hs852T): 4.61
- pIC50 (ZR-75-1): 4.60
- pIC50 (HCC1806): 4.57
- pIC50 (A375 cells [1]; 72h, read-out: Calculated IC50): 4.66
- pIC50 (786-O): 4.47
- pIC50 (U251): 4.52
- pIC50 (WM-266-4): 4.55
- pIC50 (U87): 4.25
- pIC50 (SKMEL28): 4.53
- pIC50 (BxPC3): 4.42
- pIC50 (TCCSUP): 4.59
- pIC50 (HCT116): 4.55
- pIC50 (LNCaP): 4.44
- cell cycle arrest (in words) (A375 cells [3]): did not induce a cell cycle arrest
